Structures can show the parent of a compound that is named as a salt.
Test system: panel of breast cancer cell lines
Test: Compound A with targeted agents and chemotherapies, 72-hour in vitro proliferation assays
Format: cell-based
Settings: 72-hour proliferation
[1] = BT-20 cell line, compound A × partner
[2] = CAL-51 cell line, compound A × partner
[3] = CAL-85-1 cell line, compound A × partner
[4] = CAL-120 cell line, compound A × partner
[5] = CAL-148 cell line, compound A × partner
[6] = CAMA-1 cell line, compound A × partner
[7] = DU-4475 cell line, compound A × partner
[8] = EVSA-T cell line, compound A × partner
[9] = HCC1143 cell line, compound A × partner
[10] = AU565 cell line, compound A × partner

Cc1c(-c2ccc(N3CCc4cccc(C(=O)Nc5nc6ccccc6s5)c4C3)nc2C(=O)O)cnn1CC12CC3CC(CC(C3)C1)C2 [Compound A-1331852]
Best CI [1]: 0.01
Bliss Volume [1]: 68.96
HSA volume [1]: 70.29
Loewe Volume [1]: 70.26
Synergy Score [1]: 162.62
Best CI [2]: 0.01
Bliss Volume [2]: 56.43
HSA volume [2]: 55.36
Loewe Volume [2]: 56.58
Synergy Score [2]: 118.96
Best CI [3]: 0.01
Bliss Volume [3]: 49.08
HSA volume [3]: 54.69
Loewe Volume [3]: 53.39
Synergy Score [3]: 114.90
Best CI [4]: 0.04
Bliss Volume [4]: 28.08
HSA volume [4]: 26.51
Loewe Volume [4]: 28.14
Synergy Score [4]: 55.20
Best CI [5]: 0.01
Bliss Volume [5]: 51.23
HSA volume [5]: 55.15
Loewe Volume [5]: 56.80
Synergy Score [5]: 129.75
Best CI [6]: 0.02
Bliss Volume [6]: 41.48
HSA volume [6]: 38.74
Loewe Volume [6]: 40.35
Synergy Score [6]: 89.71
Best CI [7]: 0.41
Bliss Volume [7]: 34.50
HSA volume [7]: 31.29
Loewe Volume [7]: 31.62
Synergy Score [7]: 49.81
Best CI [8]: 0.11
Bliss Volume [8]: 31.72
HSA volume [8]: 28.03
Loewe Volume [8]: 29.10
Synergy Score [8]: 63.11
Best CI (HCC38, compound A × partner): 0.03
Bliss Volume (HCC38, compound A × partner): 36.56
HSA volume (HCC38, compound A × partner): 31.80
Loewe Volume (HCC38, compound A × partner): 30.82
Synergy Score (HCC38, compound A × partner): 60.48
Best CI (HCC70, compound A × partner): 0.00
Bliss Volume (HCC70, compound A × partner): 73.73
HSA volume (HCC70, compound A × partner): 74.12
Loewe Volume (HCC70, compound A × partner): 74.78
Synergy Score (HCC70, compound A × partner): 173.58
Best CI [9]: 0.00
Bliss Volume [9]: 53.10
HSA volume [9]: 51.70
Loewe Volume [9]: 52.79
Synergy Score [9]: 89.24
Best CI (HCC1569, compound A × partner): 0.01
Bliss Volume (HCC1569, compound A × partner): 43.44
HSA volume (HCC1569, compound A × partner): 40.52
Loewe Volume (HCC1569, compound A × partner): 40.04
Synergy Score (HCC1569, compound A × partner): 86.99
Best CI (HCC1806, compound A × partner): 0.00
Bliss Volume (HCC1806, compound A × partner): 83.58
HSA volume (HCC1806, compound A × partner): 85.67
Loewe Volume (HCC1806, compound A × partner): 85.91
Synergy Score (HCC1806, compound A × partner): 183.39
Best CI (HCC1937, compound A × partner): 0.00
Bliss Volume (HCC1937, compound A × partner): 69.83
HSA volume (HCC1937, compound A × partner): 71.58
Loewe Volume (HCC1937, compound A × partner): 71.06
Synergy Score (HCC1937, compound A × partner): 157.43
Best CI (HCC1954, compound A × partner): 0.01
Bliss Volume (HCC1954, compound A × partner): 53.64
HSA volume (HCC1954, compound A × partner): 55.54
Loewe Volume (HCC1954, compound A × partner): 55.53
Synergy Score (HCC1954, compound A × partner): 121.26
Best CI (HCC2218, compound A × partner): 0.01
Bliss Volume (HCC2218, compound A × partner): 47.29
HSA volume (HCC2218, compound A × partner): 47.84
Loewe Volume (HCC2218, compound A × partner): 46.72
Synergy Score (HCC2218, compound A × partner): 99.88
Best CI (HDQ-P1, compound A × partner): 0.01
Bliss Volume (HDQ-P1, compound A × partner): 58.35
HSA volume (HDQ-P1, compound A × partner): 61.13
Loewe Volume (HDQ-P1, compound A × partner): 60.82
Synergy Score (HDQ-P1, compound A × partner): 132.76
Best CI (HMC-1-8, compound A × partner): 0.11
Bliss Volume (HMC-1-8, compound A × partner): 21.81
HSA volume (HMC-1-8, compound A × partner): 19.39
Loewe Volume (HMC-1-8, compound A × partner): 20.77
Synergy Score (HMC-1-8, compound A × partner): 39.01
Best CI (JIMT-1, compound A × partner): 0.01
Bliss Volume (JIMT-1, compound A × partner): 57.07
HSA volume (JIMT-1, compound A × partner): 57.74
Loewe Volume (JIMT-1, compound A × partner): 57.21
Synergy Score (JIMT-1, compound A × partner): 126.70
Best CI (KPL-1, compound A × partner): 0.03
Bliss Volume (KPL-1, compound A × partner): 26.84
HSA volume (KPL-1, compound A × partner): 25.88
Loewe Volume (KPL-1, compound A × partner): 26.65
Synergy Score (KPL-1, compound A × partner): 36.44

Nc1ccn([C@@H]2O[C@H](CO)[C@@H](O)C2(F)F)c(=O)n1 [Gemcitabine Hydrochloride]
Best CI [10]: 0.56
Bliss Volume [10]: 10.13
HSA volume [10]: 3.57
Loewe Volume [10]: 2.71
Synergy Score [10]: 9.40
Best CI [1]: 0.70
Bliss Volume [1]: 4.35
HSA volume [1]: 4.94
Loewe Volume [1]: 3.32
Synergy Score [1]: 11.12
Best CI [2]: 0.47
Bliss Volume [2]: 3.26
HSA volume [2]: 3.22
Loewe Volume [2]: 3.49
Synergy Score [2]: 5.10
Best CI [3]: 0.58
Bliss Volume [3]: 9.98
HSA volume [3]: 8.91
Loewe Volume [3]: 7.81
Synergy Score [3]: 10.96
Best CI [4]: 0.21
Bliss Volume [4]: −5.00
HSA volume [4]: −5.87
Loewe Volume [4]: −4.98
Synergy Score [4]: 0.88
Best CI [5]: 0.36
Bliss Volume [5]: 19.19
HSA volume [5]: 20.88
Loewe Volume [5]: 20.22
Synergy Score [5]: 35.99
Best CI [6]: 0.06
Bliss Volume [6]: 26.55
HSA volume [6]: 18.50
Loewe Volume [6]: 18.89
Synergy Score [6]: 40.36
Bliss Volume [7]: −3.76
HSA volume [7]: −3.58
Loewe Volume [7]: −2.68
Synergy Score [7]: 0.17
Best CI [8]: 1.07
Bliss Volume [8]: 9.65
HSA volume [8]: 2.02
Loewe Volume [8]: 1.29
Synergy Score [8]: 5.11
Best CI (HCC38, compound A × partner): 0.51
Bliss Volume (HCC38, compound A × partner): 21.72
HSA volume (HCC38, compound A × partner): 8.18
Loewe Volume (HCC38, compound A × partner): 6.75
Synergy Score (HCC38, compound A × partner): 14.50
Best CI (HCC70, compound A × partner): 0.26
Bliss Volume (HCC70, compound A × partner): 18.66
HSA volume (HCC70, compound A × partner): 18.52
Loewe Volume (HCC70, compound A × partner): 17.52
Synergy Score (HCC70, compound A × partner): 26.37
Best CI (HCC1143, compound A × partner): 0.15
Bliss Volume (HCC1143, compound A × partner): 4.32
HSA volume (HCC1143, compound A × partner): 8.39
Loewe Volume (HCC1143, compound A × partner): 7.81
Synergy Score (HCC1143, compound A × partner): 9.41
Best CI (HCC1569, compound A × partner): 0.68
Bliss Volume (HCC1569, compound A × partner): 3.74
HSA volume (HCC1569, compound A × partner): 6.80
Loewe Volume (HCC1569, compound A × partner): 6.28
Synergy Score (HCC1569, compound A × partner): 5.52
Best CI (HCC1806, compound A × partner): 0.13
Bliss Volume (HCC1806, compound A × partner): 17.89
HSA volume (HCC1806, compound A × partner): 18.06
Loewe Volume (HCC1806, compound A × partner): 17.74
Synergy Score (HCC1806, compound A × partner): 30.81
Best CI (HCC1937, compound A × partner): 0.45
Bliss Volume (HCC1937, compound A × partner): 2.34
HSA volume (HCC1937, compound A × partner): 0.77
Loewe Volume (HCC1937, compound A × partner): 2.36
Synergy Score (HCC1937, compound A × partner): 2.33
Best CI (HCC1954, compound A × partner): 0.28
Bliss Volume (HCC1954, compound A × partner): 3.78
HSA volume (HCC1954, compound A × partner): 5.17
Loewe Volume (HCC1954, compound A × partner): 5.09
Synergy Score (HCC1954, compound A × partner): 7.13
Best CI (HCC2218, compound A × partner): 0.36
Bliss Volume (HCC2218, compound A × partner): 5.46
HSA volume (HCC2218, compound A × partner): 4.02
Loewe Volume (HCC2218, compound A × partner): 2.80
Synergy Score (HCC2218, compound A × partner): 6.54
Best CI (HDQ-P1, compound A × partner): 0.40
Bliss Volume (HDQ-P1, compound A × partner): −3.49
HSA volume (HDQ-P1, compound A × partner): −0.19
Loewe Volume (HDQ-P1, compound A × partner): 0.42
Synergy Score (HDQ-P1, compound A × partner): 2.05
Best CI (HMC-1-8, compound A × partner): 0.19
Bliss Volume (HMC-1-8, compound A × partner): 24.97
HSA volume (HMC-1-8, compound A × partner): 9.34
Loewe Volume (HMC-1-8, compound A × partner): 8.40
Synergy Score (HMC-1-8, compound A × partner): 17.19
Best CI (JIMT-1, compound A × partner): 0.05
Bliss Volume (JIMT-1, compound A × partner): 4.37
HSA volume (JIMT-1, compound A × partner): 3.74
Loewe Volume (JIMT-1, compound A × partner): 3.50
Synergy Score (JIMT-1, compound A × partner): 1.80
Synergy Score (MCF7 cells, Compound A × partner agent): 11.61

Source: US11931424B2, “Combination MCL-1 inhibitors with anti-body drug conjugates” (Gilead Sciences, Inc., priority 2021, dated 2024)
